Results as given in US7081448B2, “Benzyllactobionamides as inhibitors of smooth muscle cell proliferation” (Wyeth, priority 1998, dated 2006).

Tested on: Porcine Smooth Muscle Cell
Assay: Effects of compounds on cell proliferation using 3H thymidine incorporation
Format: cell-based
Settings: porcine smooth muscle cells, serum/growth factor stimulated; for Porcine Smooth Muscle Cell Antiproliferation, percent inhibition: @ 500 μM; for IC50: 24–36 h, read-out: Porcine Smooth Muscle Cell Antiproliferation IC50
Description: The compounds of this invention are useful as antiproliferative agents. The following procedures show the evaluation of representative compounds of this invention in standard pharmacological test procedure which measured ability of the evaluated compound to inhibit smooth muscle cell proliferation
Effects of Compounds on Cell Proliferation Using ^3H Thymidine Incorporation
Human and porcine smooth muscle cells were tested in early passage (generally passage 3–7) at sub-confluent conditions. Cultures were grown in 16 mm (24 well) multi-well culture dishes in medium 199 supplemented with 10% fetal bovine serum and 2% antibiotic/antimycotic. At sub-confluence, the cells were placed in a defined serum free medium (AIM-V; Gibco) for 24–48 h prior to initiating the experimental protocol. […] Compounds were added to each well at 50 fold dilution (20 μL/well) and the plates were incubated for 24–36 h at 37° C. in 5% CO2. Compounds were initially dissolved in 50% ethanol and serially diluted into media. Compounds were routinely evaluated at concentrations from 1 to 100 μM. As a control, grade II porcine intestinal mucosal heparin (sodium salt) was routinely evaluated in all cell preparations at concentrations from 0.1 to 100 μg/mL. At the completion of the test procedure, plates were placed on ice, washed three times with ice cold phosphate buffered saline (PBS) and incubated in ice cold 10% trichloroacetic acid (TCA) got 30 min to remove acid soluble proteins. Solution was transferred to scintillation vials containing 0.4 N HCl (500 μL/vial to neutralize NaOH) and each well was rinsed two times with water (500 μL) for a total volume of 2 mL/vial. Data was obtained, in triplicate, for both control and experimental samples. Control (100%) data was obtained from maximally stimulated cells, as the result of growth factor or serum stimulation. Experimental data was obtained from cells maximally stimulated with growth factor or serum and treated with compound. Data are expressed as an IC50 or percent inhibition in Table I below.

| Compound | Porcine Smooth Muscle Cell Antiproliferation, percent inhibition [% @ 500] | IC50 [µM] |
| --- | --- | --- |
| CC(=O)OC[C@H]1O[C@@H](O[C@@H]([C@H](OC(C)=O)[C@@H](OC(C)=O)C(=O)NCc2ccc(N)cc2)[C@@H](COC(C)=O)OC(C)=O)[C@H](OC(C)=O)[C@@H](OC(C)=O)[C@H]1OC(C)=O [Example 4, N-(4-Amino-benzyl)-octa-O-acetyl-lactobionamide] | 30 | – |
| CC(=O)OC[C@H]1O[C@@H](O[C@@H]([C@H](OC(C)=O)[C@@H](OC(C)=O)C(=O)NCc2ccccc2)[C@@H](COC(C)=O)OC(C)=O)[C@H](OC(C)=O)[C@@H](OC(C)=O)[C@H]1OC(C)=O [Example 1, N-Benzyl-octa-O-acetyl-lactobionamide] | – | 118 |
| N-Benzyl-octa-O-sulfo-lactobionamide Octasodium Salt [Example 2] | 45 | – |
| CC(=O)OC[C@H]1O[C@@H](O[C@@H]([C@H](OC(C)=O)[C@@H](OC(C)=O)C(=O)NCc2cccc(N)c2)[C@@H](COC(C)=O)OC(C)=O)[C@H](OC(C)=O)[C@@H](OC(C)=O)[C@H]1OC(C)=O [Example 5, N-(3-Amino-benzyl)-octa-O-acetyl-lactobionamide] | 12 | – |
| N-[3-(Acetylamino)-benzyl]-octa-O-sulfo-lactobionamide Octasodium Salt [Example 7] | – | 122 |
